The numbers were not newly measured in patent publication US20010006974A1, “COMBINATION THERAPY FOR LYMPHOPROLIFERATIVE DISEASES” (priority 1999, published 2001), which cites them from elsewhere.

The test system of one data set is refractory lymphomas. Particulars: monotherapy; 5 mg/m^2 for 3 consecutive day every 3 weeks.
Data set [1] deals with refractory/relapsed B-CLL. To be noted: refractory/relapsed B-CLL patients.
The subject of the next data set is bcl-2. To be noted: correlated with theophylline-induced apoptosis.
The subject of a further data set is cAMP. To be noted: correlated with theophylline-induced apoptosis.

As for `OC[C@H]1O[C@@H](n2cnc3c2NC=NC[C@H]3O)C[C@@H]1O` [pentostatin, 2′-deoxycoformycin], the response rate is listed as 32% in the data set on refractory lymphomas and 30% in data set [1].
As to `Cn1c(=O)c2[nH]cnc2n(C)c1=O` [theophylline], the bcl-2 regulation entry in the data set on bcl-2 is recorded as “down-regulation”. For the same compound, in the data set with alkylator-refractory CLL, the “activity as a single agent” value is reported as “no activity”. Also, the “intracellular level of cAMP” value with cAMP was “increased”.
